Experimental data: ChEMBL document CHEMBL5325413, “Optimization of BAX trigger site activator BTSA1 with improved antitumor potency and in vitro ADMET properties” (Eur J Med Chem, 2023)
Activity calls are given as the source filed them. The calls are words filed in the database; no cut-off is given here.

Legend:
A549 [1] = assay: Antiproliferative activity against human A549 cells assessed as cell growth inhibition incubated for 72 hrs by MTT assay; type: functional
PC-3 = assay: Antiproliferative activity against human PC-3 cells assessed as cell growth inhibition incubated for 72 hrs by MTT assay; type: functional
A549 [2] = assay: Induction of apoptosis in human A549 cells assessed as total apoptotic cells at 10 uM incubated for 48 hrs by Annexin V-FITC/PI staining based flow cytometry analysis (reference value: 2.86%); type: functional
HCT-116 = assay: Antiproliferative activity against human HCT-116 cells assessed as cell growth inhibition incubated for 72 hrs by MTT assay; type: functional
A549 [3] = assay: Induction of apoptosis in human A549 cells assessed as early apoptotic cells at 10 uM incubated for 48 hrs by Annexin V-FITC/PI staining based flow cytometry analysis (reference value: 0.708%); type: functional
A549 [4] = assay: Induction of apoptosis in human A549 cells assessed as live cells at 10 uM incubated for 48 hrs by Annexin V-FITC/PI staining based flow cytometry analysis (reference value: 96.4%); type: functional
A549 [5] = assay: Induction of apoptosis in human A549 cells assessed as dead cells at 10 uM incubated for 48 hrs by Annexin V-FITC/PI staining based flow cytometry analysis (reference value: 0.739%); type: functional
A549 [6] = assay: Induction of apoptosis in human A549 cells assessed as late apoptotic cells at 10 uM incubated for 48 hrs by Annexin V-FITC/PI staining based flow cytometry analysis (reference value: 2.15%); type: functional
A549 [7] = assay: Induction of apoptosis in human A549 cells assessed as upregulation of BAX translocation at 20 uM incubated for 24 hrs by Western blot analysis; type: functional, cell-based

Row | Compound | GI50 (A549 [1]) [µM] | GI50 (PC-3) [µM] | Activity (A549 [2]) [%] | GI50 (HCT-116) [µM] | Activity (A549 [3]) [%] | Activity (A549 [4]) [%] | Activity (A549 [5]) [%] | Activity (A549 [6]) [%] | Activity (A549 [7])
1 | N[C@@H]1CCCN(C(=O)c2ccc(N3N=C(c4ccccc4)/C(=N/Nc4ccccc4)C3=O)cc2)C1 | 8.38 | 5.39 | 11.8 | 2.96 | 8.59 | 6.22 | 0.814 | 3.21 | 
2 | CN(C)C1CCN(C(=O)c2ccc(N3N=C(c4ccccc4)C(=C4CCN(C(=O)c5cc6cc(Cl)ccc6[nH]5)CC4)C3=O)cc2)CC1 | 43.6 | > 50 |  | > 50 |  |  |  |  | 
3 | O=C1/C(=N\Nc2ccccc2)C(c2ccccc2)=NN1c1ccccc1 | > 50 | > 50 |  | > 50 |  |  |  |  | 
4 | O=C(c1ccc(N2N=C(c3ccccc3)/C(=N/Nc3ccccc3)C2=O)cc1)N1CCN(C2COC2)CC1 | > 50 | > 50 |  | > 50 |  |  |  |  | 
5 | CC1CCN(C(=O)c2cccc(N3N=C(c4ccccc4)/C(=N/Nc4ccccc4)C3=O)c2)CC1 | 2.72 | 2.41 |  | 3.44 |  |  |  |  | 
6 | CN1CCC(NC(=O)c2cccc(N3N=C(c4ccccc4)/C(=N/Nc4ccccc4)C3=O)c2)CC1 | 9.06 | 15 |  | 5.83 |  |  |  |  | 
7 | CN(C)C1CCN(C(=O)c2ccc(N3N=C(c4ccccc4)/C(=N/Nc4cc(C(F)(F)F)cc(C(F)(F)F)c4)C3=O)cc2)CC1 | 4.54 | 1.15 | 44.8 | 1.76 | 34.7 | 54.3 | 0.996 | 10.1 | 
8 | CS(=O)(=O)N1CCN(C(=O)c2ccc(N3N=C(c4ccccc4)/C(=N/Nc4ccccc4)C3=O)cc2)CC1 | > 50 | > 50 |  | > 50 |  |  |  |  | 
9 | O=C(c1ccc(N2N=C(c3ccccc3)/C(=N/Nc3ccccc3)C2=O)cc1)N1CCCCC1 | > 50 | > 50 |  | > 50 |  |  |  |  | 
10 | COc1cc(N/N=C2\C(=O)N(c3ccc(C(=O)N4CCC(N(C)C)CC4)cc3)N=C2c2ccccc2)cc(OC)c1OC | 2.9 | 5.77 |  | 5.51 |  |  |  |  | 
11 | CN(C)C1CCN(C(=O)c2ccc(N3N=C(c4ccccc4)/C(=N/Nc4ccc5ccccc5c4)C3=O)cc2)CC1 | 4.52 | 4.78 |  | 2.18 |  |  |  |  | 
12 | CN1CCN(C(=O)c2ccc(N3N=C(c4ccccc4)/C(=N/Nc4ccccc4)C3=O)cc2)CC1 | 22.9 | > 50 |  | 21.9 |  |  |  |  | 
13 | O=C(c1cscn1)N1CCC(C2=NN(c3nc(-c4ccccc4)cs3)C(=O)/C2=N\Nc2nccs2)CC1 | > 50 | > 50 |  | > 50 |  |  |  |  | 
14 | CN(C)C1CCN(C(=O)c2ccc(N3N=C(c4ccccc4)/C(=C/NCc4ccccc4)C3=O)cc2)CC1 | > 20 | > 20 |  | > 20 |  |  |  |  | 
15 | O=C(c1ccccc1)N1CCC(C2=NN(c3nc(-c4ccccc4)cs3)C(=O)/C2=N\Nc2nccs2)CC1 | 28.7 | > 50 |  | > 50 |  |  |  |  | 
16 | COc1cc(N/N=C2\C(=O)N(c3ccc(C(=O)N4CCC(N(C)C)CC4)cc3)N=C2c2ccccc2)ccc1F | 2.79 | 3.94 | 61.8 | 3.37 | 39.6 | 35.4 | 2.85 | 22.2 | Active
17 | CN(C)C1CCN(C(=O)c2ccc(N3N=C(c4ccccc4)C(=C4CCN(C(=O)c5cscn5)CC4)C3=O)cc2)CC1 | 16.6 | 16.8 |  | 11.7 |  |  |  |  | 
18 | O=C1CCN(C(=O)c2ccc(N3N=C(c4ccccc4)/C(=N/Nc4ccccc4)C3=O)cc2)CC1 | > 50 | > 50 |  | > 50 |  |  |  |  | 

Row | Compound | GI50 (A549 [1]) [µM] | GI50 (PC-3) [µM] | Activity (A549 [2]) [%] | GI50 (HCT-116) [µM] | Activity (A549 [3]) [%] | Activity (A549 [4]) [%] | Activity (A549 [5]) [%] | Activity (A549 [6]) [%] | Activity (A549 [7])
19 | CN(C)CCCNC(=O)c1ccc(N2N=C(c3ccccc3)/C(=N/Nc3ccccc3)C2=O)cc1 | 3.32 | 3.76 |  | 2.14 |  |  |  |  | 
20 | CN(C)C1CCN(C(=O)c2ccc(N3N=C(c4ccccc4)/C(=N/Nc4cccnc4)C3=O)cc2)CC1 | 4.22 | 5.17 |  | 3.88 |  |  |  |  | 
21 | CN(C)C1CCN(C(=O)c2cccc(N3N=C(c4ccccc4)/C(=N/Nc4ccccc4)C3=O)c2)CC1 | 2.68 | 10.7 |  | 5.23 |  |  |  |  | 
22 | CN(C)C1CCN(C(=O)c2ccc(N3N=C(c4ccccc4)C(=C4CCN(C(=O)c5ccc(O)cc5)CC4)C3=O)cc2)CC1 | 33.6 | > 50 |  | 34.7 |  |  |  |  | 
23 | CC(C)(C)OC(=O)N1CCC2(CC1)CN(C(=O)c1ccc(N3N=C(c4ccccc4)/C(=N\Nc4ccccc4)C3=O)cc1)C2 | 25.5 | 19.9 |  | 17.7 |  |  |  |  | 
24 | O=C(c1ccc(N2N=C(c3ccccc3)/C(=N/Nc3ccccc3)C2=O)cc1)N1CCC2(CC1)CNC2 | 4.69 | 5.6 |  | 4.12 |  |  |  |  | 
25 | CN(C)C1CCN(C(=O)c2ccc(N3N=C(c4ccccc4)CC3=O)cc2)CC1 | > 50 | > 50 |  | > 50 |  |  |  |  | 
26 | CC(C)Oc1cc(F)ccc1N/N=C1\C(=O)N(c2ccc(C(=O)N3CCC(N(C)C)CC3)cc2)N=C1c1ccccc1 | 6.13 | 2.42 |  | 2.2 |  |  |  |  | 
27 | O=C(NCc1ccncc1)c1ccc(N2N=C(c3ccccc3)/C(=N/Nc3ccccc3)C2=O)cc1 | 11.5 | 12.6 |  | 17.5 |  |  |  |  | 
28 | CN(C)C1CCN(C(=O)c2ccc(N3N=C(c4ccccc4)/C(=N/Nc4ccc(OCc5ccccc5)cc4)C3=O)cc2)CC1 | 5.03 | > 20 |  | > 20 |  |  |  |  | 
29 | CC1=NN(c2ccc(C(=O)N3CCC(N(C)C)CC3)cc2)C(=O)/C1=N\Nc1ccccc1 | 8.99 | 4.94 | 13.3 | 3.42 | 11.7 | 82.4 | 4.37 | 1.57 | 
30 | CN(C)C1CCN(C(=O)c2ccc(N3N=C(C4CC4)/C(=N/Nc4ccccc4)C3=O)cc2)CC1 | 2.15 | 7.14 |  | 4.38 |  |  |  |  | 
31 | CN(C)C1CCN(C(=O)c2ccc(N3N=C(c4ccccc4)/C(=N/Nc4ccc(O)cc4)C3=O)cc2)CC1 | 2.19 | 3.04 | 76.2 | 2.67 | 60 | 21.5 | 2.33 | 16.2 | Active
32 | O=C(c1ccc(N2N=C(c3ccccc3)/C(=N/Nc3ccccc3)C2=O)cc1)N1CCNCC1 | > 50 | > 50 |  | > 50 |  |  |  |  | 
33 | CN1CCC(NC(=O)c2ccc(N3N=C(c4ccccc4)/C(=N/Nc4ccccc4)C3=O)cc2)CC1 | 4.44 | 6.45 |  | 4.13 |  |  |  |  | 
34 | CN(C)C(=O)c1ccc(N2N=C(c3ccccc3)/C(=N/Nc3ccccc3)C2=O)cc1 | > 50 | > 50 |  | > 50 |  |  |  |  | 
35 | O=C(c1ccc(N2N=C(c3ccccc3)/C(=N\Nc3ccccc3)C2=O)cc1)N1CCC(N2CCCCC2)CC1 | 14.5 | 12.8 |  | 8.75 |  |  |  |  | 
36 | CN(C)C1CCN(C(=O)c2ccc(N3N=C(c4ccccc4)/C(=C/Nc4ccccc4)C3=O)cc2)CC1 | > 20 | > 20 |  | 14.8 |  |  |  |  | 
